From patent US11426441B2, “Composition comprising protein phosphatase 1 inhibitory peptide for treating vascular diseases” (BethphaGen Inc., priority 2016, dated 2022) come the findings set out here.

The test system of one experiment is eNOS and Akt. Briefly: eNOS and Akt phosphorylation in PAECs (western blotting). The format is cell-based. Conditions: 100 nM okadaic acid. The procedure:
FIGS. 16a, 16b and 16c. (16a-16b) PAECs were treated with 3 μM ψPLB-SE for 1 hour, and protein expression was quantitatively analyzed through western blotting using antibodies against Phospho-eNOS (ser1177), total eNOS, phospho-Akt (Ser473, Thr308), total Akt, and GAPDH. (16c) The pulmonary tissue lysate was subjected to immunoprecipitation using PP1 antibody to investigate the interactions of PP1 with eNOS and Akt depending on the presence or absence of the treatment with ψPLB-SE using respective antibodies therefor.
FIGS. 17a, 17b and 17c. (17a) PAECs were treated with 50 μM LY294002, a PI3K inhibitor, for 24 hours, and then treated with 3 μM ψPLB-SE for 1 hour. Protein expression was quantitatively analyzed through western blotting using antibodies against Phospho-eNOS (ser1177), total eNOS, phospho-Akt (Ser473, Thr308), total Akt, and GAPDH. (17b) PAECs were treated with 10 μM inhibitor IV, an Akt inhibitor, for 2 hours, and then treated with 3 μM ψPLB-SE for 1 hour. Protein expression was quantitatively analyzed through western blotting using antibodies against total eNOS and GAPDH. (17c) PAECs were treated with 100 nM OA, a PP1 inhibitor, for 24 hours, and then treated with 3 μM ψPLB-SE for 1 hour. Protein expression was quantitatively analyzed through western blotting using antibodies against Phospho-eNOS (ser1177), total eNOS, phospho-Akt (Ser473, Thr308), total Akt, and GAPDH.
ψPLB-SE (RAE16TIEMPQ; SEQ ID NO: 2) was derived from the PLB protein sequence surrounding the Ser16 phosphorylation site. To facilitate uptake into cells, the peptide was conjugated to the cell penetrating peptide dNP2 ([…]; SEQ ID NO: 21) or TAT (YGRKKRRQRRR; SEQ ID NO: 22). The peptides used in the present invention were PLB-SE (RAETIEMPQ; SEQ ID NO: 2) and control peptide (RASTIEMPQ; SEQ ID NO: 23). PLB-SE and cell penetrating peptide were connected by a linker peptide (GGG; SEQ ID NO: 24) The peptides (purity of 95% or higher, AnyGen, Gwangju, Korea) was resuspended in double-distilled water or physiological saline at a stock concentration of 3 mM (cells), 2.5 mg/ml (rats), or 500 μg/ml (mice). The rats were treated with 1 mg/kg peptides and mice were treated with 2 mg/kg peptides. The rat aortic smooth muscle cells (RASMCs), human coronary smooth muscle cells (HCSMCs), pulmonary arterial endothelial cells (PAECs), and pulmonary arterial smooth muscle cells (PASMCs) were treated with the peptides at a final concentration of 3 μM for 1 hour. The PI3K inhibitor LY294002 (Millipore, USA), the Akt inhibitor Inhibitor IV (Calbiochem, USA), and the PP1 inhibitor okadaic acid (Sigma Aldrich, USA), used in the experiments using pulmonary arterial endothelial cells (PAECs), were purchased. For the monocrotaline aqueous solution, the monocrotaline powder (Sigma Aldrich, USA) was dissolved in a small amount of a 1 M hydrochloric acid solution (HCL), diluted with sterilized distilled water, and adjusted to pH 7.35 by addition of sodium hydroxide (NaOH). The animals were bred and observed in the same conditions as in the control group during the experiment periods. In addition, the calcium ionophore A23187 and the calpain I and II inhibitors MDL28170 and […] were purchased from Sigma-Aldrich (St. Louis, Mo., USA).
Vascular smooth muscle cells (VSMCs) were homogenized in a minimal volume of 50 mM Tris-HCl, pH 7.4, supplemented with a broad-spectrum protease inhibitor cocktail (Calbiochem). The proteins were separated by SDS-PAGE and then transferred to polyvinylidene fluoride membranes (Schleicher & Schuell). After blocking with 5% (w/v) non-fat milk for 1 hour and washing with TBST, the membranes were incubated with antibodies against SERCA2a, SERCA2b (21st century biochemical), PCNA (abcam), GAPDH (Sigma-Aldrich), phospho-eNOS, eNOS, phospho-eIF2α, eIF2α (cell signaling), Vimentin, α-SMA, BMPR2 (Santa cruz), phospho-Akt, Akt (cell signaling), phospho-phospholamban (Merck), and Phospholamban (cell signaling). […]

A further experiment has as its system cytosolic Ca^2+ level. Briefly: Intracellular Ca2+ measurement in HCSMCs. It counts as cell-based, human. The protocol:
(§1) FIGS. 4a, 4b, 4c and 4d. (4a-4c) HCSMCs were pretreated with 3 μM ψPLB-SE and 15 μM MDL28170 for 1 hour, and then treated with 50 μM A23187 for 2 hours. (4a) Immunostaining was performed with antibodies against SERCA2a and SERCA2b (green). Nuclei were stained with Hoechst (blue). Representative merged images are shown. Scale bar, 50 μm. (4b) Western blot analysis was performed with cell extracts. Data are expressed as the means±SD (n=3-4; *, P<0.05). (4c) Baseline Ca^2+ concentration was measured by lonOptix calcium imaging system. (4d) RASMC were treated with ψPLB-SE or control peptide under the same conditions as described for FIG. 1B. The baseline Ca^2+ concentration was measured by lonOptix calcium imaging system (*, P<0.05).
The intracellular Ca^2+ level was measured in VSMCs by loading cells with 0.5 μM Fura2-AM (Molecular Probes, Eugene Oreg., USA), a Ca^2+-sensitive indicator, for 15 minutes at 37. The fluorescence was recorded using the lonOptix calcium imaging system. VSMCs were stimulated by the exposure to light emitted by a 75 W halogen lamp through either a 340 nm or 380 nm filter. The fluorescent emissions were detected between 480 nm and 520 nm by a photomultiplier tube after an initial illumination at 340 nm for 0.5 second and then at 380 nm during recording. The 340 nm excitation scan was repeated at the end of the protocol, and qualitative changes in the intracellular Ca^2+ level were inferred from the ratio of the Fura2 fluorescent intensity at both wavelengths.

In experiment [1] the test system is SERCA2a. Briefly: A23187-induced SERCA2a degradation in HCSMCs. It counts as cell-based, human. The procedure: as §1
The rat aortic smooth muscle cells (RASMCs) were isolated from the medial layer of the thoracic aorta derived from male Sprague-Dawley rats (body weight, 180-200 g) by an enzymatic reaction with collagenase (50 U/mL, Worthington) and pancreatic elastase (0.25 mg/mL, Sigma-Aldrich) for 4 hours at 37. The cells were collected and resuspended in DMEM containing 20% (v/v) fetal bovine serum. The resuspension was then plated on collagen I (Sigma-Aldrich)-coated glass coverslips and incubated at 37 in an atmosphere of 5% (v/v) CO2 and 95% (v/v) air. Human coronary smooth muscle cells (HCSMCs), pulmonary arterial endothelial cells (PAECs), and pulmonary arterial smooth muscle cells (PASMCs) were purchased from Lonza and cultured in EBM or SmBM (Lonza) supplemented with 0.5 mg/mL hEGF, […], 1 mg/mL hFGF, […] gentamicin/amphotericin-B, and 5% fetal bovine serum. All the cells were cultured at 37 in 5% (v/v) CO2 and 95% (v/v) air. RASMCs and HCSMCs were, respectively, plated at the densities of 1×10^4 cells/cm^2 and 1×10^5 cells/cm^2 for immunostaining and western blotting experiments. […]
Vascular smooth muscle cells (VSMCs) were homogenized in a minimal volume of 50 mM Tris-HCl, pH 7.4, supplemented with a broad-spectrum protease inhibitor cocktail (Calbiochem). […] The blots were scanned and quantified using LAS software.

The test system of experiment [2] is SERCA2a. Kind of experiment: SERCA2a level and stability in RASMCs (immunostaining, western blotting). It counts as cell-based, rat. Conditions: synthetic conditions, calpain inhibitor. The procedure: (§2) Rat aortic smooth muscle cells (RASMCs) were fixed in 4% (w/v) paraformaldehyde at room temperature for 10 min, washed with PBS, and then transmitted with 0.1% (v/v) Triton X-100 in PBS for 40 min. After washing and blocking with 3% (w/v) BSA in PBS, the cells were incubated overnight at room temperature with antibodies against SERCA2a (1:250), SERCA2b (1:250), and PCNA (1:50). On the following day, the cells were washed with PBS and incubated with anti-rabbit and anti-mouse IgG conjugated to Alexa Fluor 488 and 594, respectively, for 1 hour at room temperature. The cells were treated with FluoroGuard antifade reagent (Bio-Rad, Hercules, Calif., USA), and the coverslips were examined under a fluorescent microscope.
Vascular smooth muscle cells (VSMCs) were homogenized in a minimal volume of 50 mM Tris-HCl, pH 7.4, supplemented with a broad-spectrum protease inhibitor cocktail (Calbiochem). The proteins were separated by SDS-PAGE and then transferred to polyvinylidene fluoride membranes (Schleicher & Schuell). After blocking with 5% (w/v) non-fat milk for 1 hour and washing with TBST, the membranes were incubated with antibodies against SERCA2a, SERCA2b (21st century biochemical), PCNA (abcam), GAPDH (Sigma-Aldrich), phospho-eNOS, eNOS, phospho-eIF2α, eIF2α (cell signaling), Vimentin, α-SMA, BMPR2 (Santa cruz), phospho-Akt, Akt (cell signaling), phospho-phospholamban (Merck), and Phospholamban (cell signaling). The membranes were then incubated with horseradish peroxidase-conjugated secondary antibodies (Jackson ImmunoResearch, West Grove, Pa., USA) and developed using a chemiluminescent substrate (Dogen). The blots were scanned and quantified using LAS software.
RASMCs were cultured in DMEM supplemented with 0.1% (v/v) FBS (Contractile) or in DMEM supplemented with 10% (v/v) FBS (Synthetic) in the presence of 3 μM control or ψPLB-SE peptide. Cycloheximide (Sigma) was added to media to a final concentration of 5 μg/ml. Cells were harvested after 0, 3, and 5 days of incubation and their protein extracts were subjected to western blotting.
A general note: A western blot detects proteins with antibodies after separation by electrophoresis.

For experiment [3], the system named is rat aortic smooth muscle cells (RASMCs). Kind of experiment: RASMC proliferation (PCNA immunostaining, EZ-CyTox cell viability assay). Conditions: RASMCs, synthetic conditions, calpain inhibitor. It counts as cell-based. The protocol: The rat aortic smooth muscle cells (RASMCs) were isolated from the medial layer of the thoracic aorta derived from male Sprague-Dawley rats (body weight, 180-200 g) by an enzymatic reaction with collagenase (50 U/mL, Worthington) and pancreatic elastase (0.25 mg/mL, Sigma-Aldrich) for 4 hours at 37. The cells were collected and resuspended in DMEM containing 20% (v/v) fetal bovine serum. The resuspension was then plated on collagen I (Sigma-Aldrich)-coated glass coverslips and incubated at 37 in an atmosphere of 5% (v/v) CO2 and 95% (v/v) air. Human coronary smooth muscle cells (HCSMCs), pulmonary arterial endothelial cells (PAECs), and pulmonary arterial smooth muscle cells (PASMCs) were purchased from Lonza and cultured in EBM or SmBM (Lonza) supplemented with 0.5 mg/mL hEGF, […], 1 mg/mL hFGF, […] gentamicin/amphotericin-B, and 5% fetal bovine serum. All the cells were cultured at 37 in 5% (v/v) CO2 and 95% (v/v) air. RASMCs and HCSMCs were, respectively, plated at the densities of 1×10^4 cells/cm^2 and 1×10^5 cells/cm^2 for immunostaining and western blotting experiments. For RASMC and PASMC cell proliferation experiments, these cells were cultured in fetal bovine serum-free media for 3 days, and then proliferation was induced by serum addition.
as §2, with “microscope. […]” for “microscope.”

Setting [4] is: HCSMCs, 50 μM A23187 for 2 hours.
Setting [5] is: HCSMCs pretreated 1 hour with 3 μM ψPLB-SE or 15 μM MDL28170, then 50 μM A23187 2 hours.

As to `C=C1[C@@H](O)[C@@H]2O[C@]3(CC[C@H](/C=C/[C@@H](C)[C@@H]4CC(C)=C[C@@]5(O[C@H](C[C@@](C)(O)C(=O)O)CC[C@H]5O)O4)O3)CC[C@H]2O[C@@H]1[C@@H](O)C[C@H](C)[C@H]1O[C@@]2(CCCCO2)CC[C@H]1C` [okadaic acid, reference compound], the “phosphorylation of Akt and eNOS” value with eNOS and Akt is on record as “increased”.
As for `CNc1ccc2oc(C[C@H]3O[C@@]4(CC[C@H]3C)O[C@H]([C@H](C)C(=O)c3ccc[nH]3)[C@H](C)C[C@H]4C)nc2c1C(=O)O` [A23187], in the experiment on cytosolic Ca^2+ level (setting [4]), the “cytosolic Ca^2+ level” value was “elevation”. For the same molecule, the “degradation of SERCA2a” value with SERCA2a [1] (setting [4]) is “evoked the degradation”.
With MDL28170 [reference compound], the “elevation of the cytosolic Ca^2+ level by A23187” value with cytosolic Ca^2+ level (setting [5]) is recorded as “not”. Besides, in the experiment with SERCA2a [1] (setting [5]), the “A23187 (Ca^2+)-dependent degradation of SERCA2a” value was “completely blocked”. For the same molecule, in the experiment on SERCA2a [2], the “degradation of SERCA2a (immunostaining)” value is on record as “inhibited” and the “degradation of SERCA2a (western blotting)” value is reported as “protective effect”. Besides, the PCNA level entry in experiment [3] is given as “decreased”.
